Tests used:
neural crest derivatives = test: Zebrafish neural crest assay (melanocytes, mitf-GFP, iridophores, mbp-mCherry glia, jaw cartilage); type: in vivo
Source text: The mitf-GFP transgenic was scored at 24 hpf, as this is the point of maximal GFP intensity.

A375 melanoma cells = test: In vivo xenograft study of A375 cells in nude mice; set-up: species or system mouse; details: daily i.p.; PLX4720 2.5 mg/kg, Leflunomide 7.5 mg/kg; DMSO 7.4+/−1.3-fold
Protocol: The A375 cell line was chosen for xenografts based on prior experience with PLX4720 in this line. Cells were grown to 60-70% confluence, trypsinized and 3.5×10^5 cells were transplanted into the right flank of nude mice in a volume of 200 ul. […] Tumors were measured with digital calipers on day 4, 7 and 12 and growth rate was compared to the tumor size on day 0. Growth rates were compared between DMSO, PLX, LEF or […] using ANOVA with repeated measures to identify significant interactions. For the day 12 data, differences between the groups were compared using ANOVA followed by posthoc Tukey's least-squared difference.

[1] = 100 mg daily for 3 days, then 20 mg per day; cited from earlier work
A375 cell line = test: Microarray analysis of A375 cells treated with leflunomide; type: cell-based, human; details: 25 uM, 3 days
Protocol: Expression analysis was performed using Illumina WG6 v3 arrays, and the data was analyzed using Illumina Genome Studio.

[2] = system: crestin+ neural crest progenitors; test: In situ hybridization (ISH) for crestin in zebrafish embryos (chemical screen for suppressors of neural crest development); type: in vivo; details: for crestin expression by ISH: zebrafish embryos, 50% epiboly to 24 hpf
Protocol: The screen was performed essentially as previously described^31. In brief, WT embryos were collected, staged and then plated at a density of 10 embryos per well in a […] tissue culture plate in 200 ul of E3 water. At 50% epiboly, 100 ul of a 3× chemical stock was added to each well using a Hamilton liquid handling robot, yielding a final 1× concentration. For the majority of the chemicals in the library, this yielded a concentration of ˜33 uM. The libraries used were the BIOMOL 480, Sigma LOPAC 1280, and selected additional compounds obtained through the Children's Hospital Boston Chemical Screening facility. Compounds known to affect pigmentation in Xenopus were obtained from a screen previously described^32, 33. After treatment, embryos were rinsed in E3 water, pronase treated to remove chorions, washed 4× in E3 and 1× in PBT, and then fixed in 4% PFA for 24 hours. Fixed embryos were changed to 100% methanol 24 h later, and kept until the time of ISH.
Embryos underwent automated ISH using a Biolane HTI robot with a crestin riboprobe as previously described^31. All wells were manually scored by eye, assigning a score within a range of 1 (no crestin staining) to 3 (no change in crestin) to 5 (marked increase in crestin). Note was also taken of chemicals that affected migratory patterns in both A-P and D-V directions, and overall morphology. […] All hits were validated in larger, independent clutches of 100-200 embryos using chemicals obtained from independent suppliers.

[3] = system: pigmented melanocytes in spt5m806 embryos; test: Spt5 hypomorphic experiments: pigmentation in spt5m806 incross; type: in vivo, zebrafish; details: 3 uM
Source text: This allele has only a mild pigment defect on its own. […] Embryos were scored at 48 hpf for pigmentation, scored as “unpigmented”, “light”, or “fully pigmented” as compared to untreated wells. Individual embryos were then genotyped for the spt5^m806 mutation as previously described^14. Kruskall-Wallis analysis was used to detect a difference between the genotyped groups.

[4] = system: M481 primary human melanoma xenografts; test: M481 primary human melanoma xenografts in mice; type: in vivo, mouse; details: in combination with Plexicon
A375 cells = test: Cell viability of melanoma cell line A375 (FIG. 28b); type: cell-based, human
Source text: FIG. 28a, M481 cells. FIG. 28b, A375 cells. FIG. 28c, M405 cells. FIG. 28d, M528 cells. FIG. 28e, M715 cells.

CYP450 isoenzymes = details: parent compound and active metabolite; cited from earlier work
[5] = system: 5' and 3' transcripts of mitf, dlb, beta-actin; test: 5'-3' transcriptional elongation assay (qRT-PCR on whole embryos); type: in vivo, zebrafish
Protocol: Primers were designed to the noted genes, situated at the very 5′ end or 3′ end of the gene, situated in the UTR if annotated. qRT-PCR was then performed using SYBR Green, and each primer pair was normalized to an average of the Ct value for the 5′ beta-actin and 3′ beta-actin primers. Fold-change was calculated using the delta-delta Ct method, and all values are expressed relative to the DMSO control, after log 2 transformation. Differences between groups were assessed using t-tests. Primer sequences available upon request.

[6] = system: Human BRAFV600 (M491) cells; test: Human BRAFV600 (M491) primary melanoma xenografts in mice; type: in vivo, mouse; details: in combination with BRAFi and MEKi
[7] = system: sox10, dct, ntl, gata1 expression; test: In situ hybridization for neural crest and non-neural crest lineage markers; details: zebrafish, in vivo
[8] = system: human melanoma cell lines (A375, Hs.294t, RPMI7951); test: In vitro melanoma proliferation assay (CellTiterGlo); type: cell-based; details: A375, Hs.294t, RPMI7951; CellTiterGlo
Protocol: Human melanoma cell lines (A375, RPMI7951, Hs.294T, MAMLE-3M) were obtained from the American Type Culture Collection. The 8988 cell line was provided by Alec Kimmelman at Dana Farber, and the PANC1 and MDA-231-MB lines were provided by Rania Hartouche at Harvard. Cells were cultured in DMEM/10% FCS at 37 C, 5% CO2. For proliferation assays, 96-well clear bottom plates were used to plate cells at a density of 5,000 cells/well (RPMI7951 and A375) or 10,000 cells/well (MAMLE-3M-3M and Hs.294T) in 100 ul containing indicated concentrations of A771726 or PLX4720 or DMSO. All conditions were tested in triplicate. Media was changed at day 2, and proliferation rate was measured at day 4 using the CellTiterGlo assay kit (Promega). All values are expressed are the % of luciferase relative to the DMSO control well. Differences between groups were statistically analyzed using a generalized linear ANOVA model taking into account factors of PLX4720, A771726 and dose. IC50's were calculated using a log-logistic model.

[9] = 6.5 uM, 24 hpf, relative to DMSO

Cc1oncc1C(=O)Nc1ccc(C(F)(F)F)cc1 [leflunomide]
microphthalmia (neural crest derivatives; 2.5 uM from 5-72 hpf): microphthalmia was induced | reflective iridophores on the surface of the eye (neural crest derivatives; 2.5 uM from 5-72 hpf): reduction of reflective iridophores on the surface of the eye | mitf-GFP+ cells (neural crest derivatives; 24 hpf): nearly complete loss of mitf-GFP+ cells | pigmented melanocytes (neural crest derivatives; 36-48 hpf): devoid of pigmented melanocytes | jaw cartilage (neural crest derivatives; 72 hpf): jaw cartilage disruption | myelin basic protein (mbp)-mCherry glial cells (neural crest derivatives; 72 hpf): reduction of myelin basic protein (mbp)-mCherry glial cells | tumor growth at 12 days post-treatment (A375 melanoma cells): 4.7+/−0.12 fold | steady-state concentration [1]: approximately 60 mcg/mL | gene expression in A375 (microarray) (A375 cell line): downregulation of genes required for neural crest development | ability to inhibit neural crest development (rank order of effect) ([2]; Example III, different concentrations, crestin ISH): approximately the same as compounds 5 and 6 | crestin expression by ISH [2]: reduction in expression of the neural crest | crestin expression by ISH ([2]; listed as Leflunomide): phenocopied NSC210627 | embryos with few or no melanocytes, spt5m806 mutant ([3]; mutant embryos): 99% | embryos with few or no melanocytes, wild type ([3]; wild type embryos): 0% | tumor volume [4]: more effective when used in combination with Plexicon | cell survival of A375 cells (A375 cells): impair cell survival | metabolism by CYP450 isoenzymes (CYP450 isoenzymes): Neither the parent compound nor the active metabolite is metabolized by CYP450 isoenzymes | dlb 3′ transcript abundance [5, 9]: 0.74+/−0.07 fold | dlb 5′ transcript abundance [5, 9]: 1.13+/−0.14 fold | mitf 3′ transcript abundance [5, 9]: 0.39+/−0.07 fold | mitf 5′ transcript abundance [5, 9]: 3.75+/−1.19 fold | beta-actin 3′ transcript abundance ([5]; control gene, 6.5 uM, 24 hpf): 0.99+/−0.06 fold | beta-actin 5′ transcript abundance ([5]; control gene, 6.5 uM, 24 hpf): 1.03+/−0.07 fold | 3′ transcription of mitf, pvalb2, her4.2 and dlb ([5]; leflunomide vs. DMSO): significant decrease in 3′ transcription | tumor growth [6]: significantly impair tumor growth | expression of sox10 and dct (ISH) [7]: reduced expression of sox10 and dct | intensity of mesoderm marker ntl and blood marker gata1 (ISH) [7]: No significant difference is seen in intensity | proliferation of human melanoma cell lines [8]: dose-dependent decrease in melanoma proliferation

— patent US10646478B2, “Methods for treatment of melanoma” (CHILDREN'S MEDICAL CENTER CORPORATION, priority 2011, dated 2020)
